Measured values taken from US9340549B2, “Oxazolidinone compounds and derivatives thereof” (priority 2012, dated 2016).
Like-named read-outs stand apart in the source and are kept apart here.

Tests used:
[1] = system: 8×TCF promoter-driven Firefly luciferase (Wnt reporter) in HEK-293 cells; assay: 2H9-STF assay, Wnt ligand activated HEK-293 assay in WT APC cellular context; assay type: cell-based; details: Homo sapiens
Protocol: HEK-293 cells engineered with an 8×TCF promoter-driven Firefly (FF) luciferase gene (Wnt reporter) along with an SV40 promoter-driven Renilla (RN) luciferase gene (control reporter) were used to measure the potency of tankyrase compounds in the context of Wnt ligand activation in a wild-type (non-APC mutated) cellular background. The engineered HEK-293 cells were plated (25 μL) at a density of 40,000 cells/well in black, clear-bottom, 96-well View plates (PerkinElmer) in normal growth medium (DMEM with 10% FBS with no antibiotics). Tankyrase inhibitors (5 μL) were transferred to cells from a three-fold serially diluted compound plate. A 10-point dilution series was tested starting at a concentration (10 μM final concentration in assay). Column 6 contained only DMSO and served as the “HI” control. Cells and compounds were incubated together for 1 hour at 37° C. after which the Wnt3a ligand (pathway inducer) was added to all wells except column 12 which served as the “LO” control. Twenty microliters of diluted recombinant mouse Wnt3a (R & D Systems) was added to the cells for a final concentration of 200 ng/mL (5 nM which is the Wnt3a˜EC80) and the plates were incubated at 37° C. for 18 to 24 hours. The Dual-Glo Reagents (Promega) were added as directed by manufacturer to assay the FF and RN luciferase activity. Luciferase activity was measures using the EnVision multilabel plate reader (PerkinElmer).

Axin2 in SW480 cells = assay: cells; assay type: cell-based; details: read-out: Axin2 384 IF EC50 IP
Summary of the method: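 SW480 cells treated 24 h at 37° C (0.5% DMSO final), fixed/permeabilized, immunostained for Axin2. ArrayScan imaging quantified ring-spot intensity; Axin2 accumulation expressed as percent of control, EC50 from concentration-response.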

[2] = system: total β-catenin in SW480 colorectal cells; assay: cells; assay type: cell-based
Summary of the method: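 SW480 cells in growth medium (MEM alpha, 10% heat-inactivated FBS, 10 mM HEPES) treated with a 10-point, 3-fold dilution series of TNKS inhibitor for 40–48 h at 37 °C. Lysates run on an MSD sandwich immunoassay for total β-catenin, read by electrochemiluminescence.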

[3] = target: 6×HIS-tankyrase 2 (946-1162) (Homo sapiens (Human), UniProt Q9H2K2); assay: Tankyrase 2 biochemical assay (AlphaLisa, anti-PAR detection); details: 4 nM enzyme, 250 nM NAD; read-out: TNKS2 IP IC50
[4] = target: 6×HIS-tankyrase 1 (1091-1325) (Homo sapiens (Human), UniProt O95271); assay: biochemical; assay type: biochemical; details: […] enzyme, 400 nM NAD, 60 minutes at room temperature; read-out: TNKS1 IP IC50
[5] = system: 8×TCF promoter-driven Firefly luciferase (Wnt reporter) in DLD-1 colorectal cells; assay: DLD-1-STF assay, constitutively activated Wnt pathway in mutant APC cancer cell context; assay type: cell-based; details: Homo sapiens
Protocol: DLD-1-STF Assay. Constitutively Activated Wnt Pathway Assay in Mutant APC Cancer Cell Context
DLD-1 colorectal cells engineered with an 8×TCF promoter-driven Firefly (FF) luciferase gene (Wnt reporter) along with an EF1a promoter-driven Renilla (RN) luciferase gene (control reporter) were used to measure the potency of tankyrase compounds in the context of the constitutively activated Wnt pathway due to mutated APC in colorectal cancer cells. The engineered DLD-1 cells were plated (45 μL) at a density of 10,000 cells/well in black, clear-bottom, 96-well View plates (PerkinElmer) in normal growth medium (RPMI with 10% FBS with no antibiotics). Tankyrase inhibitors (5 μL) were transferred to cells from a three-fold serially diluted compound plate. A 10-point dilution series was tested starting at a concentration (10 μM final concentration in assay). Column 6 contained only DMSO and served as the “HI” control. […] The plates were incubated at 37° C. for 40 to 48 hours. The Dual-Glo Reagents (Promega) were added as directed by manufacturer to assay the FF and RN luciferase activity. Luciferase activity was measures using the EnVision multilabel plate reader (PerkinElmer).

SW480 cells = assay: Colony formation assay; assay type: cell-based; details: Homo sapiens, read-out: SW480 Colony Inhibition IC50
Protocol: Colorectal cell lines grown under normal logarithmic growth conditions in 10% FBS were trypsinized, counted in a Vi-CELL Cell Viability Analyzer and diluted to 400 cells/mL in RPMI media containing 0.5% FBS. Cells were plated in 12 well plates using 0.5 mL of diluted cells for a total of 200 cells/well. Tankyrase inhibitors were diluted in RPMI (0.5% FBS) at 2× final concentration. Ten concentrations of compound were prepared starting at 20 μM and serially diluted by 2 fold and 0.5 mL of diluted compound was added to each well. The final concentration range tested was thus 10 μM down to 20 nM. Two additional wells per plate were treated with the vehicle control (0.1% DMSO). The cells were grown for 12 days with the media and the compounds changed at day 6. Colonies were visualized by fixing and staining with Crystal Violet dye diluted in 1× fixation solution (2% formaldehyde, 0.2%, glutaraldehyde in 1×PBS) for 30 minutes at room temperature. The plates were washed extensively and air dried. Images of plates were captured and the colony counts were performed using the Bioreader® (Biosys) reader.

[6] = HEK293, HEK-293 reporter cells, 200 ng/mL mouse Wnt3a, 18 to 24 hours, read-out: 2H9-Wnt3a-STF-FF/RL * 100 IC50
[7] = HEK293, read-out: 2H9-Wnt3a-STF-FF/RL * 100 IC50
[8] = Homo sapiens, SW480 cells, 40 to 48 hours, top concentration 10 μM, read-out: SW480-Total β-Catenin IC50 IP
[9] = Homo sapiens, SW480, 24 h, SW480 cells, 24 hours
[10] = DLD-1 reporter cells, 40 to 48 hours, read-out: DLD1-STF-FF/RL * 100 IC50

Chain of 6×HIS-tankyrase 2 (946-1162) (Q9H2K2 946-1162): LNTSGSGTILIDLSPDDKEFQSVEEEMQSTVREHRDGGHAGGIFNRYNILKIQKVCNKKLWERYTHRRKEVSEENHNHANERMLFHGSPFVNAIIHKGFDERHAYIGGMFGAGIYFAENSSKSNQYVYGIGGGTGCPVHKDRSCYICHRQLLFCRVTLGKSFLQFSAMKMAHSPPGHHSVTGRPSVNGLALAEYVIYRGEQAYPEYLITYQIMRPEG
Chain of 6×HIS-tankyrase 1 (1091-1325) (O95271 1091-1325): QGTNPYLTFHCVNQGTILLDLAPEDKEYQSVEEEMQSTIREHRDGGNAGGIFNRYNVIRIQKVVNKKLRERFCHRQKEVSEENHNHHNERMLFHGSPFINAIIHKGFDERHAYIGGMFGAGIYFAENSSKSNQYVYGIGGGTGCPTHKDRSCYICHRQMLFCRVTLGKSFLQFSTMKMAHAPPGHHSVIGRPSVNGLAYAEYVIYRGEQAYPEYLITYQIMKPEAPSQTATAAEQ

| Compound | IC50 [1, 6] [nM] | IC50 [3] [nM] | IC50 [4] [nM] | IC50 [2, 8] [nM] | EC50 (Axin2 in SW480 cells; [9]) [nM] | also measured |
| --- | --- | --- | --- | --- | --- | --- |
| CC1(C)OC(=O)N([C@H]2CC[C@H](NC(=O)c3cccc4cccnc34)CC2)[C@@H]1c1ccccc1 (single isomer, unassigned) [Example 28] | 113 |  |  |  |  |  |
| CC1(C)OC(=O)N(c2ccc(-c3cc(-c4ncccn4)c[nH]c3=O)cc2)[C@H]1c1ccccc1 [Example 4, (S)-5,5-Dimethyl-3-(4-(2-oxo-5-(pyrimidin-2-yl)-1,2-dihydropyridin-3-yl)phenyl)-4-phenyloxazolidin-2-one] |  | 65.9 | 76.9 |  |  | EC50 (Axin2 in SW480 cells; Homo sapiens, SW480, 24 h): 2840 nM; IC50 [1, 7]: 290 nM; IC50 ([2]; Homo sapiens, SW480, read-out: SW480-Total β-Catenin IC50 IP): 750 nM |
| CC1(C)OC(=O)N(c2ccc(-c3cnc(N)c(-c4ccc5nncn5n4)c3)cc2)[C@H]1c1ccccc1 [Example 12, (S)-3-(4-(5-([1,2,4]triazolo[4,3-b]pyridazin-6-yl)-6-aminopyridin-3-yl)phenyl)-5,5-dimethyl-4-phenyloxazolidin-2-one] |  | 49.3 | 52.1 | 212 |  |  |
| CC1(C)OC(=O)N([C@H]2CC[C@H](n3c(=O)[nH]c4cnccc43)CC2)[C@H]1c1ccccc1 [Example 23, (S)-5,5-dimethyl-3-((1r,4S)-4-(2-oxo-2,3-dihydro-1H-imidazo[4,5-c]pyridin-1-yl)cyclohexyl)-4-phenyloxazolidin-2-one] |  |  |  | 143 | 231 | IC50 [5, 10]: 44 nM |
| CC1(C)OC(=O)N([C@H]2CC[C@H](NC(=O)c3cccc4cccnc34)CC2)[C@H]1c1ccccc1 [Example 26, N-((1S,4r)-4-((S)-5,5-dimethyl-2-oxo-4-phenyloxazolidin-3-yl)cyclohexyl)quinoline-8-carboxamide] |  |  |  |  |  | IC50 [1, 7]: 55 nM; IC50 (SW480 cells; SW480, 288 h): 1300 nM |
| CC1(C)OC(=O)N([C@H]2CC[C@H](C(=O)Nc3cccc4cccnc34)CC2)[C@H]1c1ccccc1 [Example 32, (1S,4r)-4-((S)-5,5-dimethyl-2-oxo-4-phenyloxazolidin-3-yl)-N-(quinolin-8-yl)cyclohexanecarboxamide] | 92.8 |  |  |  |  |  |
| CC1(C)OC(=O)N([C@H]2CC[C@H](n3c(=O)[nH]c4ccccc43)CC2)C1c1ccccc1 (stereo partly drawn) [Example 35, (R+S) 5,5-dimethyl-3-((1r,4r)-4-(2-oxo-2,3-dihydro-1H-benzo[d]imidazol-1-yl)cyclohexyl)-4-phenyloxazolidin-2-one] | 543 |  | 11.8 | 1330 | 6690 |  |
| CC1(C)OC(=O)N([C@H]2CC[C@H](n3c(=O)[nH]c4cccnc43)CC2)[C@H]1c1ccccc1 [Example 37, (S)-5,5-dimethyl-3-((1r,4S)-4-(2-oxo-1H-imidazo[4,5-b]pyridin-3(2H)-yl)cyclohexyl)-4-phenyloxazolidin-2-one] | 183 |  |  | 517 | 3580 |  |
| CC1(C)OC(=O)N([C@H]2CC[C@H](n3c(=O)[nH]c4cc(C#N)ccc43)CC2)[C@H]1c1ccccc1 [Example 47, 1-((1S,4r)-4-((S)-5,5-dimethyl-2-oxo-4-phenyloxazolidin-3-yl)cyclohexyl)-2-oxo-2,3-dihydro-1H-benzo[d]imidazole-5-carbonitrile] |  |  |  | 53.7 |  | EC50 (Axin2 in SW480 cells; Homo sapiens, SW480 cells, 24 hours): 72.9 nM; IC50 ([5]; DLD-1, read-out: DLD1-STF-FF/RL * 100 IC50): 12 nM |
| CC1(C)OC(=O)N(c2ccc(-c3cnc(N)c(-c4ncc(F)cn4)c3)cc2)[C@H]1c1ccccc1 [Example 64, (S)-3-(4-(6-amino-5-(5-fluoropyrimidin-2-yl)pyridin-3-yl)phenyl)-5,5-dimethyl-4-phenyloxazolidin-2-one] |  | 48.3 | 85 | 293 | 3230 |  |
| CC1(C)OC(=O)N(c2ccc(-c3cnc(N)c(-c4ncccn4)c3)cc2)[C@H]1c1ccccc1 [Example 65, (S)-3-(4-(6-amino-5-(pyrimidin-2-yl)pyridin-3-yl)phenyl)-5,5-dimethyl-4-phenyloxazolidin-2-one] | 95.9 | 25.9 | 49 | 233 | 1440 | IC50 (SW480 cells; 288 h, SW480, 0.5% FBS, 12 days): 1300 nM; IC50 [5, 10]: 107 nM |
| CC1(C)OC(=O)N(C2CC=C(c3cnc(N)c(-c4ncccn4)c3)CC2)C1c1ccccc1 (stereo not drawn) [Example 131, 3-(4-(6-amino-5-(pyrimidin-2-yl)pyridin-3-yl)cyclohex-3-en-1-yl)-5,5-dimethyl-4-phenyloxazolidin-2-one] |  |  | 16 | 362 | 1030 |  |
| (S)-5,5-dimethyl-3-(4-(2-oxo-1H-imidazo[4,5-c]pyridin-3(2H)-yl)phenyl)-4-phenyloxazolidin-2-one [Example 15] |  |  | 105 |  |  | EC50 (Axin2 in SW480 cells; SW480 cells, 24 hours): 4150 nM; IC50 ([2]; SW480 cells, 40 to 48 hours, top concentration 10 μM, read-out: SW480-Total β-Catenin IC50 IP): 992 nM |
